In the supplement of paper PMC11562712:

Assay: first-order primary biodegradation rate constant k (sorption-corrected, fDis-corrected) (d-1); higher = faster biodegradation
How it was run: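 River water with sieved sediment (50 g wet solid L^–1) from German, Swiss, Spanish and Greek river segments was spiked with 129 compounds at 1 μg L^–1 each. It was shaken in the dark at river water temperature (20.5 ± 3.5 °C) for 10 days. Filtered water-phase subsamples were analysed by UHPLC-Orbitrap-MS/MS. First-order k came from log peak-area regression over three replicates, corrected for azide-sterilised sorption-control dissipation and divided by dissolved fraction; invalid fits excluded.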

[1] = river segment: Germany (DE) H_Contam, incubation temperature 24 °C
[2] = river segment: Germany (DE) T_Contam, incubation temperature 24 °C
[3] = river segment: Germany (DE) T_Pris, incubation temperature 24 °C
[4] = river segment: Greece (EL) A_Contam, incubation temperature 19 °C
[5] = river segment: Greece (EL) G_Pris, incubation temperature 19 °C
[6] = river segment: Greece (EL) L_Contam, incubation temperature 19 °C
[7] = river segment: Spain (ES) B_Contam, incubation temperature 24 °C
[8] = river segment: Spain (ES) C_Contam, incubation temperature 24 °C
[9] = river segment: Spain (ES) F_Pris_Salt, incubation temperature 24 °C
[10] = river segment: Spain (ES) L_Contam, incubation temperature 24 °C
[11] = river segment: Switzerland (CH) C_Contam, incubation temperature 17 °C
[12] = river segment: Switzerland (CH) R_Contam, incubation temperature 17 °C
[13] = river segment: Switzerland (CH) U_Contam, incubation temperature 17 °C
[14] = river segment: Switzerland (CH) U_Pris, incubation temperature 17 °C
[15] = river segment: Greece (EL) G_Contam, incubation temperature 19 °C

Row | SMILES | first-order primary biodegradation rate constant k [1] | first-order primary biodegradation rate constant k [2] | first-order primary biodegradation rate constant k [3] | first-order primary biodegradation rate constant k [4] | first-order primary biodegradation rate constant k [5] | first-order primary biodegradation rate constant k [6] | first-order primary biodegradation rate constant k [7] | first-order primary biodegradation rate constant k [8] | first-order primary biodegradation rate constant k [9] | first-order primary biodegradation rate constant k [10] | first-order primary biodegradation rate constant k [11] | first-order primary biodegradation rate constant k [12] | first-order primary biodegradation rate constant k [13] | first-order primary biodegradation rate constant k [14] | first-order primary biodegradation rate constant k [15]
1 | CCCCc1nc(Cl)c(CO)n1Cc1ccc(-c2ccccc2-c2nnn[nH]2)cc1 [Losartan] | 0.417 | 0.319 | 0.123 | 0.323 | 0.781 | 0.343 | 0.157 | 0.105 | 0.0258 | 0.299 | 0.06 | 0.149 | 0.294 | 0.358 | –
2 | COc1cc(NS(=O)(=O)c2ccc(N)cc2)nc(OC)n1 [Sulfadimethoxine] | 0.129 | 0.416 | – | 0.0824 | 0.237 | 0.123 | 1.13 | – | – | 1.27 | 0.0158 | 0.00496 | – | 0.0859 | 0.0668
3 | NC(=O)c1cccnc1 [Nicotinamide] | – | – | – | 0.821 | – | – | – | – | – | – | – | 0.0625 | – | – | –
4 | CN(C)C(=O)Nc1ccc(Cl)c(Cl)c1 [Diuron] | 0.127 | 0.147 | 0.044 | 0.283 | 0.286 | 0.166 | – | – | – | 0.0944 | – | – | 0.0756 | 0.0899 | 0.119
5 | CN(C)CCN1C(=O)c2ccccc2N(C)c2ccccc21 [Dibenzepin] | 0.0259 | 0.567 | 0.127 | 0.19 | 0.127 | 0.215 | 0.0245 | 0.0361 | – | – | 0.0239 | 0.0245 | 0.0346 | 0.0723 | –
6 | O=C(NCC1CCCCN1)c1cc(OCC(F)(F)F)ccc1OCC(F)(F)F (configuration not stated) [Flecainide] | – | 0.116 | 0.0199 | 0.228 | – | 0.0674 | – | 1.31 | – | 0.0814 | – | – | – | – | 0.0658
7 | Nc1nc(NC2CC2)c2ncn([C@H]3C=C[C@@H](CO)C3)c2n1 [Abacavir] | 1.6 | 1.17 | 1.37 | 2.15 | 2.35 | 12 | – | 0.639 | 0.449 | 2.21 | 0.83 | 1.18 | 1.47 | 1.5 | 1.43
8 | COc1ccc2cc([C@H](C)C(=O)O)ccc2c1 [Naproxen] | – | 0.145 | 0.00509 | 0.115 | 0.102 | 0.0444 | 0.76 | 0.248 | 0.076 | 0.413 | – | 0.141 | 0.0814 | – | 0.0195
9 | CCOc1ccccc1OCCN[C@H](C)Cc1ccc(OC)c(S(N)(=O)=O)c1 [Tamsulosin] | 0.0512 | – | 0.204 | 0.786 | – | – | 0.121 | 0.261 | – | 0.41 | 0.0347 | 0.0781 | 0.0824 | 0.0624 | 1.15
10 | Cc1ccc(C)c(OCCCC(C)(C)C(=O)O)c1 [Gemfibrozil] | 0.143 | 0.278 | 0.133 | 0.37 | 0.227 | 0.152 | 0.371 | 0.26 | – | 0.327 | 0.237 | – | – | 1.01 | –
11 | CC(C)(C)C(=O)C(Oc1ccc(Cl)cc1)n1ccnc1 (configuration not stated) [Climbazole] | – | 0.282 | – | – | – | – | 0.421 | 0.0396 | 0.0487 | – | 0.0523 | – | 1.6 | 0.68 | 9.42
